The results in this text go back to US20230248671A1, “USE OF BETA-1 ADRENERGIC RECEPTOR ANTAGONIST FOR PREPARING COMPOSITIONS FOR REDUCING EPITHELIAL CELL DAMAGE INDUCED BY EPIDERMAL GROWTH FACTOR RECEPTOR INHIBITORS AND INHIBITING CANCER CELLS” (CHANG GUNG MEMORIAL HOSPITAL, LINKOU, priority 2020, published 2023).

Series [1] has as its system A549 cancer cells (EGFR-mutated lung cancer cells). As to the kind of experiment: MTT test (cell viability) on A549 cancer cells. Format: cell-based. Here is the method:
(§1) A fixed number (7×10^4 cells/dish) of HaCaT cells (human skin keratinocytes) were seeded in each well of a multi-well plate (24 wells). […] MTT (3-(4,5-dimethylthiazol-2-yl)-2,5-diphenyltetrazolium bromide and 300λ bromide-3-(4,5-dimethyl-2-thiazole)-2,5-diphenyltetrazolium) were added and 1 hour later, the supernatant was removed, DMSO was added and the resultant was shook. 200 λ/well of liquid was extracted and added into another multi-well plate (96 wells). ELISA was used to measure the absorbance value (OD570, optical density 570 nm) and calculate the cell cell viability. The experiment was repeated 3 times.
(§2) The effect of EGFR-TKI alone and the simultaneous administration of a β-1 adrenergic receptor antagonist and an EGFR-TKI on cancer cells was examined.
(§3) The effects on HaCaT cells as well as A549 cancer cells was examined.

Series [2] in a line: in vitro. The conditions noted are these: human. Here is the method:
as §1
(§4) The MTT test was carried out to examine the effect of β-1 adrenergic receptor antagonists on epithelial cells.
(§5) The MTT test was carried out to examine the effect of first administering β-1 adrenergic receptor antagonist followed by EGFR-TKI on epithelial cells.
(§6) A MTT test was conducted to examine the effect of simultaneously administering a β-1 adrenergic receptor antagonist and an EGFR-TKI on epithelial cells. […] Referring to FIG. 4, FIG. 4 is a schematic diagram showing the c epithelial cell viability after simultaneously contacting an EGFR-TKI and a β-1 adrenergic receptor antagonist with normal epithelial cells.
as §3

Series [3] deals with PC9 cancer cell (EGFR-mutated cancer cell). The following applies: afatinib and betaxolol administered simultaneously. Here is the method: as §1, §2
Series [4] deals with EGFR monoclonal antibody-induced papulopustular rash. The following applies: 0.25% (w/w) topical, day 30 of treatment. Here is the method:
(§7) Patients with EGFR-TKI or anti-EGFR monoclonal antibodies induced epithelial cell damage, for example, rosacea or papulopustular rash, were recruited. A composition comprising β-1 adrenergic receptor antagonist was formulated for topical use, and was administered to recruited patients to observe its therapeutic effect.

Series [5] deals with EGFRI-induced rosacea. The conditions noted are these: 0.25% (w/w) topical. On the procedure: as §7
The test system of series [6] is HaCaT cells (human skin keratinocytes). Description: in vitro. On the procedure:
as §1, §4, §5, §6, §3

Turning to `CN(C)C/C=C/C(=O)Nc1cc2c(Nc3ccc(F)c(Cl)c3)ncnc2cc1O[C@H]1CCOC1` [Afatinib, afatinib], in series [1] (Homo sapiens, A549), the viability at 1 µM was 101%, the viability at 2.5 µM amounted to 100%, the viability at 5 µM came out at 85.2% and the viability at 10 µM came to 73.4%. Further, in series [1] (Homo sapiens, A549), the viability at 20 µM came to 69.1% and the viability at 50 µM was found to be 26.4%. Besides, in series [2], the viability at 24 h, 0.1 μM worked out at 90.6%; the viability at 24 h, 0.5 μM is 89.8%; the viability at 24 h, 1 μM was 87.2%; the viability at 24 h, 2.5 μM worked out at 64.1%. For the same molecule, the viability at 24 h, 5 μM in series [2] was found to be 34.8%.
On to `CC(C)NCC(O)COc1ccc(CCOCC2CC2)cc1` (centres unmarked) [Betaxolol, betaxolol], for which the “inhibitory effect and cytotoxicity on PC9 compared with afatinib only” value in series [3] was “inhibitory effect is better and cytotoxicity is higher”. Besides, the “improvement of papules and pustules of Cetuximab-induced papulopustular rash” value in series [4] is given as “significantly improved”. Besides, the “improvement of osimertinib-induced rosacea” value in series [5] (4th day of treatment) was “significantly improved”. In addition, in series [5] (7th day of treatment), the “improvement of rosacea (FIG. 12)” value was “improved significantly”. Besides, the “improvement of afatinib-induced rosacea” value in series [5] (14th day of treatment compared to the 1st day) is “significantly improved”. For the same molecule, the “inhibitory effect and cytotoxicity on A549 compared with afatinib only” value in series [1] (afatinib and betaxolol together) is “inhibitory effect was better and cytotoxicity is higher”. In series [1] (cells only in contact with betaxolol), the “A549 cancer cell viability, betaxolol only” value amounted to 100%. For the same molecule, in series [2] (Cell viability (%)), the viability at 24 h, 10 μM turned out to be 92.8%; the viability at 24 h, 20 μM came out at 91.3%; the viability at 24 h, 40 μM is 91.4%; the viability at 24 h, 80 μM stood at 90.1%. For the same molecule, the viability at 24 h, 100 μM in series [2] (Cell viability (%)) worked out at 88.1%. The viability at 24 h in series [2] (HaCaT cell viability, β-1 adrenergic receptor antagonist only) worked out at 100%. In series [6] (betaxolol and afatinib added simultaneously, 24 hours), the “HaCaT cell viability compared with afatinib only” value is “much improved”. Besides, the “effect on cell viability of normal epithelial cells (in words)” value in series [6] (betaxolol only, up to 100 μM) is listed as “basically does not affect the cell viability”.
Consider `CC(C)(C)NC[C@H](O)COc1nsnc1N1CCOCC1` [timolol, Timolol], for which the “A549 cancer cell viability (change, in words)” value in series [1] (timolol and afatinib simultaneously) is recorded as “did not change significantly”; in series [1] (timolol increased to 50 μM, with afatinib), “also increased”. In addition, in series [6] (afatinib concentration fixed, timolol concentration adjusted), the “HaCaT cell viability compared with afatinib only” value is “significantly decreased”.

As a reminder, the viability is a read-out of living cells in per cent, often relative to untreated cells.
